# Data taken from patent publication US5998488A, “Ophthalmic composition” (Lion Corporation, priority 1994, dated 1999).
# Where two headings read alike, the source gives them in different places.
# How the values were obtained:
# [1] = system: E. coli, P. aeru, S. aureus, A. nigar, Candida; assay: Antimicrobial test (preservative effectiveness test, USP), microorganism type not specified; type: cell-based; conditions: α-cyclodextrin 0.03% or more
# Experimental: (§1) Using bacteria Escherichia coli (E. coli), Pseudomonas aeruginosa (P. aeru), and Stapyrococcus aureus (S. aureus) and fungi Aspergillus nigar (A. nigar) and Candida albicans (Candida) as infectious microorganisms, a preservative effectiveness test was carried out according to the Pharmacopoeia of the United States.
# (§2) ++: microorganisms died within 5 days
# (§3) +: microorganisms died in 6-10 days
# (§4) -:microorganisms died in 11-15 days or over 15 days
# Solutions were prepared in accordance with the formulation shown in Experiment 1 in a conventional manner as used in the preparation of eye drops while the amount of disodium ethylenediaminetetraacetate (EDTA-2Na) blended was in the range of 0.002 to 0.3%. The solutions were subject to the antimicrobial test of Experiment 3 and evaluated for antimicrobial activity according to the same criterion as above.
# Solutions of the following formulation were prepared in a conventional manner as used in the preparation of eye drops.
# The solutions were subject to the antimicrobial test of Experiment 3 and evaluated for antimicrobial activity according to the same criterion as above.
# Solutions of the formulation shown in Table 7 were prepared to a total amount of 1,000 g in a conventional manner as used in the preparation of eye drops. […] The ophthalmic solutions were subject to the same tests as in Experiments 1 and 3. In the test of Experiment 3, the ophthalmic solutions were evaluated for antimicrobial activity according to the same criterion as before.
# [2] = Benzalkonium chloride adsorption test (soft contact lenses, lens not given); type: physicochemical; conditions: concentration of at least 0.03%
# Experimental: (§5) The percent inhibition of benzalkonium chloride adsorption to commercially available soft contact lenses was determined by the following test.
# (§6) Benzalkonium chloride adsorption test A 30-ml vial was charged with 10 ml of the solution and a soft contact lens was immersed therein. In a constant temperature tank at 25° C., the vial was shaken for 24 hours. After the contact lens was removed from the vial, the concentration of benzalkonium chloride in the solution was quantitatively determined by high performance liquid chromatography. A percent inhibition of adsorption was calculated according to the following formula.
# (§7) As a control, the above procedure was repeated except that no contact lens was immersed.
# (§8) Inhibition of adsorption (%)=(concentration of benzalkonium chloride in sample solution)/(concentration of benzalkonium chloride in control solution)×100
# Solutions of the formulation shown in Table 7 were prepared to a total amount of 1,000 g in a conventional manner as used in the preparation of eye drops. Ophthalmic solutions of Examples 2 to 13 were obtained. The ophthalmic solutions were subject to the same tests as in Experiments 1 and 3. In the test of Experiment 3, the ophthalmic solutions were evaluated for antimicrobial activity according to the same criterion as before.
# [3] = type: physicochemical; conditions: 6 months at 50° C.
# Experimental: […] More specifically, solutions were prepared in accordance with the formulation shown in Experiment 1 while the amount of α-cyclodextrin mixed was in the range of 0.03 to 2%.
# [4] = Benzalkonium chloride adsorption test (soft contact lens Menicon Soft 72); type: physicochemical; conditions: benzalkonium chloride 0.01%, 25° C., 24 hours
# Experimental: (§9) A test was conducted to examine the inhibition of benzalkonium chloride adsorption to soft contact lenses. Solutions of the following formulation were prepared in a conventional manner as used in the preparation of eye drops.
# as §5, §6, §7, §8
# (§10) Note that Seequence, Nichicon Soft and Menicon Soft are trademarks of soft contact lenses commercially available from Bausch & Lomb, Nihon Contact K.K., and Menicon K.K., respectively.
# [5] = Benzalkonium chloride adsorption test (soft contact lens Seequence); type: physicochemical; conditions: benzalkonium chloride 0.01%, 25° C., 24 hours
# Experimental: as §9, §5, §6, §7, §8, §10
# [6] = system: Candida albicans (Candida); assay: Antimicrobial test (preservative effectiveness test, USP), Candida; type: cell-based; conditions: benzalkonium chloride 0.01%
# Experimental: (§11) The solutions of Experiment 1 were subject to an antimicrobial test.
# as §1, §2, §3, §4
# [7] = system: Pseudomonas aeruginosa (P. aeru); assay: Antimicrobial test (preservative effectiveness test, USP), P. aeru; type: cell-based; conditions: benzalkonium chloride 0.01%
# Experimental: as §11, §1, §2, §3, §4
# [8] = system: Stapyrococcus aureus (S. aureus); assay: Antimicrobial test (preservative effectiveness test, USP), S. aureus; type: cell-based; conditions: benzalkonium chloride 0.01%
# Experimental: as §11, §1, §2, §3, §4
# [9] = Benzalkonium chloride adsorption test (soft contact lens Nichicon Soft μ); type: physicochemical; conditions: benzalkonium chloride 0.01%, 25° C., 24 hours
# Experimental: as §9, §5, §6, §7, §8, §10
# [10] = system: Aspergillus nigar (A. nigar); assay: Antimicrobial test (preservative effectiveness test, USP), A. nigar; type: cell-based; conditions: benzalkonium chloride 0.01%
# Experimental: as §11, §1, §2, §3, §4
# [11] = system: Escherichia coli (E. coli); assay: Antimicrobial test (preservative effectiveness test, USP), E. coli; type: cell-based; conditions: benzalkonium chloride 0.01%
# Experimental: as §11, §1, §2, §3, §4
smiles,measurement,setting,value
OC[C@H]1O[C@@H]2O[C@H]3[C@H](O)[C@@H](O)[C@@H](O[C@H]4[C@H](O)[C@@H](O)[C@@H](O[C@H]5[C@H](O)[C@@H](O)[C@@H](O[C@H]6[C@H](O)[C@@H](O)[C@@H](O[C@H]7[C@H](O)[C@@H](O)[C@@H](O[C@H]1[C@H](O)[C@H]2O)O[C@@H]7CO)O[C@@H]6CO)O[C@@H]5CO)O[C@@H]4CO)O[C@@H]3CO [α-cyclodextrin],Antimicrobial activity of solution containing benzalkonium chloride (in words),[1],significantly reduced in antimicrobial activity
same,Inhibition of adsorption of benzalkonium chloride to soft contact lenses (in words),[2],The inhibition effect is remarkable
same,Stability,[3]; α-cyclodextrin 0.03%,.largecircle.
same,Stability,[3]; α-cyclodextrin 0.5%,.largecircle.
same,Stability,[3]; α-cyclodextrin 1%,Δ
same,Inhibition of adsorption,[4]; α-cyclodextrin 0.01%,88%
same,Inhibition of adsorption,[4]; α-cyclodextrin 0.02%,92%
same,Inhibition of adsorption,[4]; α-cyclodextrin 0.03%,100%
same,Inhibition of adsorption,[4]; α-cyclodextrin 0.05%,100%
same,Inhibition of adsorption,[4]; α-cyclodextrin 0.1%,100%
same,Inhibition of adsorption,[4]; α-cyclodextrin 0.2%,100%
same,Inhibition of adsorption,[4]; α-cyclodextrin 0.3%,100%
same,Inhibition of adsorption,[5]; α-cyclodextrin 0.01%,88%
same,Inhibition of adsorption,[5]; α-cyclodextrin 0.02%,92%
same,Inhibition of adsorption,[5]; α-cyclodextrin 0.03%,100%
same,Inhibition of adsorption,[5]; α-cyclodextrin 0.05%,100%
same,Inhibition of adsorption,[5]; α-cyclodextrin 0.1%,100%
same,Inhibition of adsorption,[5]; α-cyclodextrin 0.2%,100%
same,Inhibition of adsorption,[5]; α-cyclodextrin 0.3%,100%
same,Antimicrobial activity,[6]; α-cyclodextrin 0.01%,+ (microorganisms died in 6-10 days)
same,Antimicrobial activity,[6]; α-cyclodextrin 0.02%,+ (microorganisms died in 6-10 days)
same,Antimicrobial activity,[6]; α-cyclodextrin 0.03%,- (microorganisms died in 11-15 days or over 15 days)
same,Antimicrobial activity,[6]; α-cyclodextrin 0.05%,- (microorganisms died in 11-15 days or over 15 days)
same,Antimicrobial activity,[6]; α-cyclodextrin 0.1%,- (microorganisms died in 11-15 days or over 15 days)
same,Antimicrobial activity,[6]; α-cyclodextrin 0.2%,- (microorganisms died in 11-15 days or over 15 days)
same,Antimicrobial activity,[6]; α-cyclodextrin 0.3%,- (microorganisms died in 11-15 days or over 15 days)
same,Antimicrobial activity,[7]; α-cyclodextrin 0.01%,+ (microorganisms died in 6-10 days)
same,Antimicrobial activity,[7]; α-cyclodextrin 0.02%,+ (microorganisms died in 6-10 days)
same,Antimicrobial activity,[7]; α-cyclodextrin 0.03%,- (microorganisms died in 11-15 days or over 15 days)
same,Antimicrobial activity,[7]; α-cyclodextrin 0.05%,- (microorganisms died in 11-15 days or over 15 days)
same,Antimicrobial activity,[7]; α-cyclodextrin 0.1%,- (microorganisms died in 11-15 days or over 15 days)
same,Antimicrobial activity,[7]; α-cyclodextrin 0.2%,- (microorganisms died in 11-15 days or over 15 days)
same,Antimicrobial activity,[7]; α-cyclodextrin 0.3%,- (microorganisms died in 11-15 days or over 15 days)
same,Antimicrobial activity,[8]; α-cyclodextrin 0.01%,+ (microorganisms died in 6-10 days)
same,Antimicrobial activity,[8]; α-cyclodextrin 0.02%,+ (microorganisms died in 6-10 days)
same,Antimicrobial activity,[8]; α-cyclodextrin 0.03%,- (microorganisms died in 11-15 days or over 15 days)
same,Antimicrobial activity,[8]; α-cyclodextrin 0.05%,- (microorganisms died in 11-15 days or over 15 days)
same,Antimicrobial activity,[8]; α-cyclodextrin 0.1%,- (microorganisms died in 11-15 days or over 15 days)
same,Antimicrobial activity,[8]; α-cyclodextrin 0.2%,- (microorganisms died in 11-15 days or over 15 days)
same,Antimicrobial activity,[8]; α-cyclodextrin 0.3%,- (microorganisms died in 11-15 days or over 15 days)
same,Inhibition of adsorption,[9]; α-cyclodextrin 0.01%,87%
same,Inhibition of adsorption,[9]; α-cyclodextrin 0.02%,93%
same,Inhibition of adsorption,[9]; α-cyclodextrin 0.03%,100%
same,Inhibition of adsorption,[9]; α-cyclodextrin 0.05%,100%
same,Inhibition of adsorption,[9]; α-cyclodextrin 0.1%,100%
same,Inhibition of adsorption,[9]; α-cyclodextrin 0.2%,100%
same,Inhibition of adsorption,[9]; α-cyclodextrin 0.3%,100%
same,Antimicrobial activity,[10]; α-cyclodextrin 0.01%,+ (microorganisms died in 6-10 days)
same,Antimicrobial activity,[10]; α-cyclodextrin 0.02%,+ (microorganisms died in 6-10 days)
same,Antimicrobial activity,[10]; α-cyclodextrin 0.03%,- (microorganisms died in 11-15 days or over 15 days)
same,Antimicrobial activity,[10]; α-cyclodextrin 0.05%,- (microorganisms died in 11-15 days or over 15 days)
same,Antimicrobial activity,[10]; α-cyclodextrin 0.1%,- (microorganisms died in 11-15 days or over 15 days)
same,Antimicrobial activity,[10]; α-cyclodextrin 0.2%,- (microorganisms died in 11-15 days or over 15 days)
same,Antimicrobial activity,[10]; α-cyclodextrin 0.3%,- (microorganisms died in 11-15 days or over 15 days)
same,Antimicrobial activity,[11]; α-cyclodextrin 0.01%,+ (microorganisms died in 6-10 days)
same,Antimicrobial activity,[11]; α-cyclodextrin 0.02%,+ (microorganisms died in 6-10 days)
same,Antimicrobial activity,[11]; α-cyclodextrin 0.03%,- (microorganisms died in 11-15 days or over 15 days)
same,Antimicrobial activity,[11]; α-cyclodextrin 0.05%,- (microorganisms died in 11-15 days or over 15 days)
same,Antimicrobial activity,[11]; α-cyclodextrin 0.1%,- (microorganisms died in 11-15 days or over 15 days)
same,Antimicrobial activity,[11]; α-cyclodextrin 0.2%,- (microorganisms died in 11-15 days or over 15 days)
same,Antimicrobial activity,[11]; α-cyclodextrin 0.3%,- (microorganisms died in 11-15 days or over 15 days)
